Measured values: patent US10669272B2, “Substituted naphthyridinone compounds useful as T cell activators” (BRISTOL-MYERS SQUIBB COMPANY, priority 2018, dated 2020)
Where two headings read alike, the source gives them in different places.

Legend:
[1] = test system: Human venous whole blood; test: Human whole blood IFN-γ assay; format: cell-based; conditions: human whole blood, normalized to 3 μM reference compound with anti-CD3 plus anti-CD28 as 100% activation, read-out: INFg Whole Blood Normalized Agonist EC50;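 also: blood from healthy donors exposed to compound for 1 h before stimulation with anti-CD3 and anti-CD28 at 1 µg/mL each, IFN-γ quantified in supernatant by AlphaLISA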
[2] = molecular target: T1, human DGKα (Homo sapiens, UniProt P23743); test: DGKα LIPGLO assay (extruded liposome substrate), in vitro DGK inhibition; format: biochemical; conditions: liposome (LIPGLO) assay; read-out: DGKa LIPGLO IC50
T1 construct: TVMV protease cleavage site (C); Hexa-His (C); made in house; host or cells: Sf9 insect cells (baculovirus, Bac-to-Bac)
T1 sequence (P23743 with tags, fused parts or gaps): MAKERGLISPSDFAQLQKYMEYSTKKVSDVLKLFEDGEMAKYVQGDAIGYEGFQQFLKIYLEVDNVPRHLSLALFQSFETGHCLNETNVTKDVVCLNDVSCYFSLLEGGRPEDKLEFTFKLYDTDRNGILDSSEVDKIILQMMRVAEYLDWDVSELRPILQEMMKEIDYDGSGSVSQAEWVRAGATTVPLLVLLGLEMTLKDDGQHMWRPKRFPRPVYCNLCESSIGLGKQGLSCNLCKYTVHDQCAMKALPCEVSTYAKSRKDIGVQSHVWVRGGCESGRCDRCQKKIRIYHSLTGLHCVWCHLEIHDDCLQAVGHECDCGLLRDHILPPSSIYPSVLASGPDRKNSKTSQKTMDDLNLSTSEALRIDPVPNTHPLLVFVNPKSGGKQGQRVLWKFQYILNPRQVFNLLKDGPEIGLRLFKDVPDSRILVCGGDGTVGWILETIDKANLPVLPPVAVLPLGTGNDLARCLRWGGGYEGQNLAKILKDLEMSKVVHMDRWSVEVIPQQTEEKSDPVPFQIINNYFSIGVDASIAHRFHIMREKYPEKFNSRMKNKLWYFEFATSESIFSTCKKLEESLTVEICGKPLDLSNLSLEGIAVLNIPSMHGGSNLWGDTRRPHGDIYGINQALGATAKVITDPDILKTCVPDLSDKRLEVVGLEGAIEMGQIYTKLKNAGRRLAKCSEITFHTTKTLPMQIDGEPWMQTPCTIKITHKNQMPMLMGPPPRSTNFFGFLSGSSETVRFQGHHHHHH

[3] = molecular target: T2, human DGKζ (Homo sapiens, UniProt Q13574); test: DGKζ LIPGLO assay (extruded liposome substrate), in vitro DGK inhibition; format: biochemical; conditions: liposome (LIPGLO) assay; read-out: DGKz LIPGLO IC50
T2 construct: TVMV protease cleavage site (C); Hexa-His (C); made in house; host or cells: Sf9 insect cells (baculovirus, Bac-to-Bac)
T2 sequence (Q13574 with tags, fused parts or gaps isoform Q13574-4): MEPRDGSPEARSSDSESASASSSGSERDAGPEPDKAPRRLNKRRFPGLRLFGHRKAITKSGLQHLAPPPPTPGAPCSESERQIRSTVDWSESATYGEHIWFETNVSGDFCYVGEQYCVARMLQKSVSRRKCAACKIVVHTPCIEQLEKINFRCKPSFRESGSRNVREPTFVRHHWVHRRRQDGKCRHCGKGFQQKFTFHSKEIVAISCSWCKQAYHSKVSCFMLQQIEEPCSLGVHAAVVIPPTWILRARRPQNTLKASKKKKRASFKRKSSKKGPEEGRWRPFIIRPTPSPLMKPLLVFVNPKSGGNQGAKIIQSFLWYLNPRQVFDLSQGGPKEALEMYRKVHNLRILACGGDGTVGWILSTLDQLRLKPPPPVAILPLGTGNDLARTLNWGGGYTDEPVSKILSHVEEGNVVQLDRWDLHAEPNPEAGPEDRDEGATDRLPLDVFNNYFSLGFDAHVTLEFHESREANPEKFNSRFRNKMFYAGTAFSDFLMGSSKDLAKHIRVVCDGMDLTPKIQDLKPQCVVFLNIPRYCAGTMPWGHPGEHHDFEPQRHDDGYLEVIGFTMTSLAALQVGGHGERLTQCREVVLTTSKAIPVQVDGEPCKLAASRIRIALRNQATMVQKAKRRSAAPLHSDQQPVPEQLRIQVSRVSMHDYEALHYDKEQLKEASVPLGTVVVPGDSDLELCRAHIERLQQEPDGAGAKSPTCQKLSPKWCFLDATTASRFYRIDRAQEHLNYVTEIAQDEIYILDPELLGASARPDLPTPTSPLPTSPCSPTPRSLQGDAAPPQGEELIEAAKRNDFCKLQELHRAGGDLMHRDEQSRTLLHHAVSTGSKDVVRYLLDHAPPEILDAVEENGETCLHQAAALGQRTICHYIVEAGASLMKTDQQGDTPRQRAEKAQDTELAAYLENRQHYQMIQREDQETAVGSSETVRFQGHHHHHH

| SMILES | IC50 [2] [nM] | IC50 [3] [nM] | EC50 ([1]; Homo sapiens, 24 h) [nM] | EC50 [1] [nM] |
| --- | --- | --- | --- | --- |
| C[C@H]1CN(C(c2ccc(F)cc2)c2ccc(F)cc2)[C@H](CN2CC(O)C2)CN1c1cc(=O)n(C)c2ccc(C#N)nc12 [Example 1168] | 83000 | 60000 | 20000 |  |
| C[C@H]1CN(C(c2ccc(F)cc2)c2ccc(F)cc2)[C@H](CN(C)C)CN1c1cc(=O)n(C)c2ccc(C#N)nc12 [Example 1169] | 39000 | 6200 | 2300 |  |
| C[C@@H]1CN(C(c2ccc(F)cc2)c2ccc(F)cc2)[C@@H](CO)CN1c1cc(=O)n(C)c2ccc(C#N)nc12 [Example 1172, 8-((2R,5R)-4-(bis(4-fluorophenyl)methyl)-5-(hydroxymethyl)-2-methylpiperazin-1-yl)-5-methyl-6-oxo-5,6-dihydro-1,5-naphthyridine-2-carbonitrile] | 22000 | 3200 | 420 |  |
| Cc1ccc(C(c2ccc(C)cc2)N2C[C@@H](C)N(c3cc(=O)n(C)c4ccc(C#N)nc34)C[C@@H]2CO)cc1 [Example 1173] | 10000 | 980 | 1400 |  |
| C[C@@H]1CN(C(c2ccc(F)cc2)c2ccc(Cl)cc2)[C@@H](CO)CN1c1cc(=O)n(C)c2ccc(C#N)nc12 (stereo partly drawn) [Example 1175] | 21000 | 1000 | 20000 |  |
| C[C@@H]1CN(Cc2c(F)cc(F)cc2F)[C@@H](CO)CN1c1cc(=O)n(C)c2ccc(C#N)nc12 [Example 1182] | 34000 | 1200 | 20000 |  |
| COC[C@H]1CN(c2cc(=O)n(C)c3ccc(C#N)nc23)[C@H](C)CN1C(c1ccc(F)cc1)c1ccc(F)cc1 [Example 1183, 8-((2R,5R)-4-(bis(4-fluorophenyl)methyl)-5-(methoxymethyl)-2-methylpiperazin-1-yl)-5-methyl-6-oxo-5,6-dihydro-1,5-naphthyridine-2-carbonitrile] | > 250000 | 8900 | 9200 |  |
| CC[C@@H]1CN(c2cc(=O)n(C)c3ccc(C#N)nc23)[C@@H](C)CN1C(c1ccc(OC(F)(F)F)cc1)C1CC1 (stereo partly drawn) [Example 1190] | 2300 | 5900 | 1200 |  |
| CC[C@@H]1CN(c2cc(=O)n(C)c3ccc(C#N)nc23)[C@@H](C)CN1Cc1ccc(C(F)(F)F)cc1C(F)(F)F [Example 1197] | 9500 | 1600 | 3500 |  |
| CC(c1cc(OC(F)(F)F)ccc1F)N1C[C@H](C)N(c2cc(=O)n(C)c3ccc(C#N)nc23)C[C@H]1C (stereo partly drawn) [Example 1203] | 3000 | 1600 |  | 20000 |
| CCC(c1cc(OC(F)(F)F)ccc1F)N1C[C@H](C)N(c2cc(=O)n(C)c3ccc(C#N)nc23)C[C@H]1C (stereo partly drawn) [Example 1207] | 14000 | 1400 |  | 13000 |
| COc1ccc(C(C)N2C[C@H](C)N(c3cc(=O)n(C)c4ccc(C#N)nc34)C[C@H]2C)cc1C(F)(F)F (stereo partly drawn) [Example 1249] | 51000 | 640 | 17000 |  |
| COc1ccc(C(C)N2C[C@H](C)N(c3cc(=O)n(C)c4ccc(C#N)nc34)C[C@H]2C)cc1C(F)(F)F (stereo partly drawn) [Example 1250] | 20000 | 1700 |  | 18000 |
| CC(c1ccc(C2(C#N)CC2)cc1)N1C[C@H](C)N(c2cc(=O)n(C)c3ccc(C#N)nc23)C[C@H]1C (stereo partly drawn) [Example 1253] | 1900 | 340 | 1800 |  |
| CC(c1ccc(C2(C#N)CC2)cc1)N1C[C@H](C)N(c2cc(=O)n(C)c3ccc(C#N)nc23)C[C@H]1C (stereo partly drawn) [Example 1254] | 1900 | 340 |  | 1800 |
| Cc1cc(C(C)N2C[C@H](C)N(c3cc(=O)n(C)c4ccc(C#N)nc34)C[C@H]2C)ccc1F (stereo partly drawn) [Example 1255] | 3100 | 2000 | 2900 |  |
| C[C@@H]1CN(c2cc(=O)n(C)c3ccc(C#N)nc23)[C@@H](C)CN1Cc1ccc(P(C)(C)=O)cc1 [Example 1289] | 51000 | 130000 | 20000 |  |
| CC(c1ccc(P(C)(C)=O)cc1)N1C[C@H](C)N(c2cc(=O)n(C)c3ccc(C#N)nc23)C[C@H]1C (stereo partly drawn) [Example 1290] | 170000 | 43000 | 20000 |  |
| CC(c1ccc(P(C)(C)=O)cc1)N1C[C@H](C)N(c2cc(=O)n(C)c3ccc(C#N)nc23)C[C@H]1C (stereo partly drawn) [Example 1291] | 97000 | 96000 |  | 20000 |
| COc1ccc(C(C)N2C[C@H](C)N(c3cc(=O)n(C)c4ccc(C#N)nc34)C[C@H]2C)cc1OCCN1CCOCC1 (stereo partly drawn) [Example 1305] | 130000 | 7500 | 20000 |  |
| C[C@@H]1CN(c2cc(=O)[nH]c3ccc(C#N)nc23)[C@@H](C)CN1C(c1ccc(F)cc1)c1ccc(C#N)cc1 (stereo partly drawn) [Example 1336, 8-((2S,5R)-4-((4-cyanophenyl)(4-fluorophenyl)methyl)-2,5-dimethylpiperazin-1-yl)-6-oxo-5,6-dihydro-1,5-naphthyridine-2-carbonitrile] | 1800 | 14000 | 11000 |  |
| CC[C@@H]1CN(c2cc(=O)n(C)c3ccc(C#N)nc23)[C@@H](CC)CN1Cc1cc(F)c(F)c(F)c1 [Example 1354] | 1600 | 840 | 1200 |  |
| CC[C@H]1CN(C(C)c2cc(F)cc(OC(F)(F)F)c2)[C@H](C)CN1c1cc(=O)n(C)c2ccc(C#N)nc12 (stereo partly drawn) [Example 1384] | 9400 | 260 | 8000 |  |
| CC[C@H]1CN(C(C)c2cc(F)cc(OC(F)(F)F)c2)[C@H](C)CN1c1cc(=O)n(C)c2ccc(C#N)nc12 (stereo partly drawn) [Example 1385] | 5900 | 700 |  | 5300 |
| C[C@H]1CN(Cc2ccc3c(c2)OC(F)(F)O3)[C@H](CO)CN1c1cc(=O)n(C)c2ccc(C#N)nc12 [Example 1390] | 4000 | 15000 | 14000 |  |

The next compounds have a lower IC50 [2] than those just listed; values first:

| IC50 [2] [nM] | IC50 [3] [nM] | SMILES | EC50 ([1]; Homo sapiens, 24 h) [nM] | EC50 [1] [nM] |
| --- | --- | --- | --- | --- |
| 67 | 69 | CCC(c1ccc(C2CC2)cc1F)N1C[C@H](C)N(c2cc(=O)n(C)c3ccc(C#N)nc23)C[C@H]1C (stereo partly drawn) [Example 1218] | 320 |  |
| 67 | 69 | CCC(c1ccc(C2CC2)cc1F)N1C[C@H](C)N(c2cc(=O)n(C)c3ccc(C#N)nc23)C[C@H]1C (stereo partly drawn) [Example 1219] |  | 320 |
| 16 | 110 | CC(c1cccc(C(F)F)n1)N1C[C@H](C)N(c2cc(=O)n(C)c3ccc(C#N)nc23)C[C@H]1C (stereo partly drawn) [Example 1222] | 520 |  |
| 16 | 110 | CC(c1cccc(C(F)F)n1)N1C[C@H](C)N(c2cc(=O)n(C)c3ccc(C#N)nc23)C[C@H]1C (stereo partly drawn) [Example 1223] |  | 520 |
| 1100 | 630 | C[C@@H]1CN(c2cc(=O)n(C)c3ccc(C#N)nc23)[C@@H](C)CN1Cc1cc(F)c(F)c(F)c1 [Example 1235] | 3300 |  |
| 200 | 19 | COc1cc(F)c(C(C)N2C[C@H](C)N(c3cc(=O)n(C)c4ccc(C#N)nc34)C[C@H]2C)c(F)c1 (stereo partly drawn) [Example 1242] | 180 |  |
| 660 | 30 | COc1cc(F)c(C(C)N2C[C@H](C)N(c3cc(=O)n(C)c4ccc(C#N)nc34)C[C@H]2C)cc1F (stereo partly drawn) [Example 1244] | 120 |  |
| 49 | 48 | COCc1ccc(C(C)N2C[C@H](C)N(c3cc(=O)n(C)c4ccc(C#N)nc34)C[C@H]2C)cc1 (stereo partly drawn) [Example 1265] |  | 120 |
| 140 | 260 | CCOc1cc(F)c(CN2C[C@H](C)N(c3cc(=O)n(C)c4ccc(C#N)nc34)C[C@H]2C)c(F)c1 [Example 1275] | 190 |  |
| 71 | 240 | COc1cc(F)c(CN2C[C@H](C)N(c3cc(=O)n(C)c4ccc(C#N)nc34)C[C@H]2C)c(F)c1 [Example 1276] | 490 |  |
| 44 | 380 | CC[C@@H]1CN(c2cc(=O)n(C)c3ccc(C#N)nc23)[C@@H](C)CN1Cc1ccc(OC(F)F)cc1 [Example 1330, 8-((2S,5R)-4-(4-(difluoromethoxy)benzyl)-5-ethyl-2-methylpiperazin-1-yl)-5-methyl-6-oxo-5,6-dihydro-1,5-naphthyridine-2-carbonitrile] | 1500 |  |
| 530 | 610 | CC[C@@H]1CN(c2cc(=O)n(C)c3ccc(C#N)nc23)[C@@H](C)CN1Cc1ccc(OC(F)(F)F)c(F)c1 [Example 1332] | 4400 |  |
| 4.4 | 16 | CC[C@@H]1CN(c2cc(=O)n(C)c3ccc(C#N)nc23)[C@@H](C)CN1C(C)c1ccc(OC(F)F)cc1 (stereo partly drawn) [Example 1343] | 51 |  |
| 4.4 | 16 | CC[C@@H]1CN(c2cc(=O)n(C)c3ccc(C#N)nc23)[C@@H](C)CN1C(C)c1ccc(OC(F)F)cc1 (stereo partly drawn) [Example 1344] |  | 51 |
| 45 | 550 | CC[C@@H]1CN(c2cc(=O)n(C)c3ccc(C#N)nc23)[C@@H](CC)CN1Cc1ccc(OC(F)(F)F)cc1 [Example 1363] | 430 |  |
| 23 | 140 | CC[C@@H]1CN(c2cc(=O)n(C)c3ccc(C#N)nc23)[C@@H](CC)CN1Cc1ccc(OC(F)(F)F)cc1F [Example 1370] | 240 |  |
| 300 | 49 | COC[C@@H]1CN(c2cc(=O)n(C)c3ccc(C#N)nc23)[C@@H](C)CN1C(c1ccc(F)cc1)c1ccc(C(F)(F)F)cn1 (stereo partly drawn) [Example 1401] | 470 |  |
| 300 | 100 | COC[C@@H]1CN(c2cc(=O)n(C)c3ccc(C#N)nc23)[C@@H](C)CN1C(c1ccc(F)cc1)c1ccc(C(F)(F)F)cn1 (stereo partly drawn) [Example 1402] |  | 260 |
